{
  "source": "patent US5304540A",
  "about": "“Pharmaceutical bacteriocin compositions and methods for using the same” (Applied Microbiology, Inc., priority 1993, dated 1994)",
  "key": {"Escherichia coli": {"tested_on": "Escherichia coli", "test": "Germicidal suspension assay, E. coli;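 note: surviving cells were scored as colonies on nutrient agar after 24 h at 37° C, survival given as percent of untreated controls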", "type": "cell-based", "conditions": "for % survival at 1 min: 37° C., nisin 100 μg/ml and/or EDTA 1.0 mM where present", "description": "E. coli cells from an overnight Trypticase soy nutrient agar (TSA) were resuspended to a density measured as an absorbance of 1.0 at 600 nm in sterile ddH2 O. The reaction of the cells with each of the bactericidal test formulations analyzed was started by addition of 30 μl of cells to 970 μl of test formulation. The reaction mixture was incubated at 37° C for at least 1 minute and then centrifuged in a microfuge for 1 minute. The cell pellet was washed by resuspension in 1 ml of neutralization buffer. (The neutralization buffer: 50 mM Tris-HCl, pH 7.0, 5 mM MgSO4, 20 mM CaCl2, 0.1 M NaCl and 0.1% gelatin was prepared by first making Tris buffer and adjusting the pH. The salts and gelatin were then added and the solution stirred with heat until the solution was clear. The solution was then autoclaved for 20 min. The neutralization buffer was used without dilution.) The cells were centrifuged in a microfuge for 1 minute and resuspended in 1 ml of neutralization buffer. The viable count was determined by spreading 100 μl of bacterial suspension and serial dilutions thereof in neutralization buffer on nutrient agar and scoring surviving colonies after 24 h at 37° C. Percent survival relative to untreated controls was calculated from the scored values."}},
  "note": "Like-named read-outs stand apart in the source and are kept apart here.",
  "data": [
    {"smiles": "CC(=O)O", "note": "[Acetate]", "values": [
      {"measurement": "% survival at 1 min", "setting": "Escherichia coli; 0.1% w/v acetate pH 3.5, initial 2 × 10^7 cfu/ml", "result": 55, "unit": "%"},
      {"measurement": "% survival at 1 min", "setting": "Escherichia coli; 0.3% w/v acetate pH 3.5, initial 2 × 10^7 cfu/ml", "result": 80, "unit": "%"},
      {"measurement": "% survival at 1 min", "setting": "Escherichia coli; 1.0% w/v acetate pH 3.5, initial 2 × 10^7 cfu/ml", "result": 90, "unit": "%"},
      {"measurement": "% survival at 1 min", "setting": "Escherichia coli; 3.0% w/v acetate pH 3.5, initial 2 × 10^7 cfu/ml", "result": 10.1, "unit": "%"}
    ]},
    {"smiles": "O=C(O)CC(O)(CC(=O)O)C(=O)O", "note": "[Citrate]", "values": [
      {"measurement": "% survival at 1 min", "setting": "Escherichia coli; 0.1% w/v citrate pH 3.5, initial 5 × 10^7 cfu/ml", "result": 100, "unit": "%"},
      {"measurement": "% survival at 1 min", "setting": "Escherichia coli; 0.3% w/v citrate pH 3.5, initial 5 × 10^7 cfu/ml", "result": 56.3, "unit": "%"},
      {"measurement": "% survival at 1 min", "setting": "Escherichia coli; 1.0% w/v citrate pH 3.5, initial 5 × 10^7 cfu/ml", "result": 72.9, "unit": "%"},
      {"measurement": "% survival at 1 min", "setting": "Escherichia coli; 3.0% w/v citrate pH 3.5, initial 5 × 10^7 cfu/ml", "result": 100, "unit": "%"},
      {"measurement": "survival of E. coli on exposure to the agent by itself", "setting": "Escherichia coli; agent by itself", "result": "unaffected"},
      {"measurement": "% survival at 5 min", "setting": "Helicobacter pylori; strain ATCC43504, 0.1% citrate adjusted to pH 2.5, nisin 100 μg/ml where present, 37° C.", "result": 0.14, "unit": "%"},
      {"measurement": "% survival at 5 min", "setting": "Helicobacter pylori; strain ATCC43504, 0.1% citrate adjusted to pH 3.0, nisin 100 μg/ml where present, 37° C.", "result": "< 0.004", "unit": "%"},
      {"measurement": "% survival at 5 min", "setting": "Helicobacter pylori; strain ATCC43504, 0.1% citrate adjusted to pH 3.5, nisin 100 μg/ml where present, 37° C.", "result": "< 0.004", "unit": "%"},
      {"measurement": "% survival at 5 min", "setting": "Helicobacter pylori; strain ATCC43504, 0.1% citrate adjusted to pH 4.0, nisin 100 μg/ml where present, 37° C.", "result": 0.36, "unit": "%"},
      {"measurement": "% survival at 5 min", "setting": "Helicobacter pylori; strain ATCC43504, 0.1% citrate adjusted to pH 5.0, nisin 100 μg/ml where present, 37° C.", "result": 68.5, "unit": "%"},
      {"measurement": "% survival at 5 min", "setting": "Helicobacter pylori; strain ATCC43504, 0.3% citrate adjusted to pH 2.5, nisin 100 μg/ml where present, 37° C.", "result": 0.027, "unit": "%"},
      {"measurement": "% survival at 5 min", "setting": "Helicobacter pylori; strain ATCC43504, 0.3% citrate adjusted to pH 3.0, nisin 100 μg/ml where present, 37° C.", "result": "< 0.027", "unit": "%"},
      {"measurement": "% survival at 5 min", "setting": "Helicobacter pylori; strain ATCC43504, 0.3% citrate adjusted to pH 3.5, nisin 100 μg/ml where present, 37° C.", "result": 29.7, "unit": "%"},
      {"measurement": "% survival at 5 min", "setting": "Helicobacter pylori; strain ATCC43504, 0.3% citrate adjusted to pH 4.0, nisin 100 μg/ml where present, 37° C.", "result": 17.6, "unit": "%"},
      {"measurement": "% survival at 5 min", "setting": "Helicobacter pylori; strain ATCC43504, 0.3% citrate adjusted to pH 5.0, nisin 100 μg/ml where present, 37° C.", "result": 100, "unit": "%"},
      {"measurement": "% survival at 5 min", "setting": "Helicobacter pylori; strain ATCC43504, pH 5.0, citrate 0.1% w/v, nisin 100 μg/ml where present, first of two experiments (initial 1.40 × 10^5 cfu/ml)", "result": 83.6, "unit": "%"},
      {"measurement": "% survival at 5 min", "setting": "Helicobacter pylori; strain ATCC43504, pH 5.0, citrate 0.1% w/v, nisin 100 μg/ml where present, second of two experiments (initial 3.26 × 10^5 cfu/ml)", "result": 25.8, "unit": "%"},
      {"measurement": "% survival at 5 min", "setting": "Helicobacter pylori; strain ATCC43504, pH 5.0, citrate 0.3% w/v, nisin 100 μg/ml where present, first of two experiments (initial 1.40 × 10^5 cfu/ml)", "result": 42.9, "unit": "%"},
      {"measurement": "% survival at 5 min", "setting": "Helicobacter pylori; strain ATCC43504, pH 5.0, citrate 0.3% w/v, nisin 100 μg/ml where present, second of two experiments (initial 3.26 × 10^5 cfu/ml)", "result": 4.39, "unit": "%"},
      {"measurement": "% survival at 5 min", "setting": "Helicobacter pylori; strain ATCC43504, pH 5.0, citrate 1.0% w/v, nisin 100 μg/ml where present, first of two experiments (initial 1.40 × 10^5 cfu/ml)", "result": 22.1, "unit": "%"},
      {"measurement": "% survival at 5 min", "setting": "Helicobacter pylori; strain ATCC43504, pH 5.0, citrate 1.0% w/v, nisin 100 μg/ml where present, second of two experiments (initial 3.26 × 10^5 cfu/ml)", "result": 50.9, "unit": "%"},
      {"measurement": "% survival at 5 min", "setting": "Helicobacter pylori; strain ATCC43504, pH 7.0, citrate 0.1% w/v, nisin 100 μg/ml where present, initial 9.62 × 10^4 cfu/ml", "result": 17.7, "unit": "%"},
      {"measurement": "% survival at 5 min", "setting": "Helicobacter pylori; strain ATCC43504, pH 7.0, citrate 0.3% w/v, nisin 100 μg/ml where present, initial 9.62 × 10^4 cfu/ml", "result": 8.94, "unit": "%"},
      {"measurement": "% survival at 5 min", "setting": "Helicobacter pylori; strain ATCC43504, pH 7.0, citrate 1.0% w/v, nisin 100 μg/ml where present, initial 9.62 × 10^4 cfu/ml", "result": 0.82, "unit": "%"},
      {"measurement": "% survival at 5 min", "setting": "Helicobacter pylori; strain ATCC43579, 0.1% citrate adjusted to pH 2.5, nisin 100 μg/ml where present, 37° C.", "result": "< 5.0 × 10^-4%"},
      {"measurement": "% survival at 5 min", "setting": "Helicobacter pylori; strain ATCC43579, 0.1% citrate adjusted to pH 3.0, nisin 100 μg/ml where present, 37° C.", "result": "1.1 × 10^-3%"},
      {"measurement": "% survival at 5 min", "setting": "Helicobacter pylori; strain ATCC43579, 0.1% citrate adjusted to pH 3.5, nisin 100 μg/ml where present, 37° C.", "result": 0.18, "unit": "%"},
      {"measurement": "% survival at 5 min", "setting": "Helicobacter pylori; strain ATCC43579, 0.1% citrate adjusted to pH 4.0, nisin 100 μg/ml where present, 37° C.", "result": 9.56, "unit": "%"},
      {"measurement": "% survival at 5 min", "setting": "Helicobacter pylori; strain ATCC43579, 0.1% citrate adjusted to pH 5.0, nisin 100 μg/ml where present, 37° C.", "result": 97.2, "unit": "%"},
      {"measurement": "% survival at 5 min", "setting": "Helicobacter pylori; strain ATCC43579, pH 5.0, 0.1% citrate, nisin 0, 37° C., initial 3.19 × 10^7 cfu/ml", "result": 86.2, "unit": "%"},
      {"measurement": "% survival at 5 min", "setting": "Helicobacter pylori; strain ATCC43579, pH 5.0, citrate 0.1% w/v, nisin 100 μg/ml where present, initial 1.04 × 10^4 cfu/ml", "result": 100, "unit": "%"},
      {"measurement": "% survival at 5 min", "setting": "Helicobacter pylori; strain ATCC43579, pH 5.0, citrate 0.3% w/v, nisin 100 μg/ml where present, initial 1.04 × 10^4 cfu/ml", "result": 100, "unit": "%"},
      {"measurement": "% survival at 5 min", "setting": "Helicobacter pylori; strain ATCC43579, pH 5.0, citrate 1.0% w/v, nisin 100 μg/ml where present, initial 1.04 × 10^4 cfu/ml", "result": 100, "unit": "%"},
      {"measurement": "% survival at 5 min", "setting": "Helicobacter pylori; strain ATCC43579, pH 7.0, citrate 0.1% w/v, nisin 100 μg/ml where present", "result": 12.1, "unit": "%"},
      {"measurement": "% survival at 5 min", "setting": "Helicobacter pylori; strain ATCC43579, pH 7.0, citrate 0.3% w/v, nisin 100 μg/ml where present", "result": 0.26, "unit": "%"},
      {"measurement": "% survival at 5 min", "setting": "Helicobacter pylori; strain ATCC43579, pH 7.0, citrate 1.0% w/v, nisin 100 μg/ml where present", "result": 0.02, "unit": "%"}
    ]},
    {"smiles": "CC(O)C(=O)O", "note": "(stereo not drawn) [Lactate, lactate]", "values": [
      {"measurement": "% survival at 1 min", "setting": "Escherichia coli; 0.1% w/v lactate pH 3.5, initial 5 × 10^7 cfu/ml", "result": 22.2, "unit": "%"},
      {"measurement": "% survival at 1 min", "setting": "Escherichia coli; 0.3% w/v lactate pH 3.5, initial 5 × 10^7 cfu/ml", "result": 46.7, "unit": "%"},
      {"measurement": "% survival at 1 min", "setting": "Escherichia coli; 1.0% w/v lactate pH 3.5, initial 5 × 10^7 cfu/ml", "result": 35.6, "unit": "%"},
      {"measurement": "% survival at 1 min", "setting": "Escherichia coli; 3.0% w/v lactate pH 3.5, initial 5 × 10^7 cfu/ml", "result": 4.2, "unit": "%"}
    ]},
    {"smiles": "O=C(O)CCC(=O)O", "note": "[Succinate, succinate]", "values": [
      {"measurement": "% survival at 1 min", "setting": "Escherichia coli; 0.1% w/v succinate pH 3.5, initial 3.4 × 10^6 cfu/ml", "result": 85.5, "unit": "%"},
      {"measurement": "% survival at 1 min", "setting": "Escherichia coli; 0.3% w/v succinate pH 3.5, initial 3.4 × 10^6 cfu/ml", "result": 29.9, "unit": "%"},
      {"measurement": "% survival at 1 min", "setting": "Escherichia coli; 1.0% w/v succinate pH 3.5, initial 3.4 × 10^6 cfu/ml", "result": 36.7, "unit": "%"},
      {"measurement": "% survival at 1 min", "setting": "Escherichia coli; 3.0% w/v succinate pH 3.5, initial 3.4 × 10^6 cfu/ml", "result": 13.9, "unit": "%"}
    ]}
  ]
}
